Experiments:
[1] = tested on: pancreas carcinoma Panc02; assay: Subcutaneous syngeneic pancreatic carcinoma model; assay type: in vivo, C57BL6 mice; conditions: 300 μg i.p., 5 doses every other day
Method: Male C57BL/6 mice, 6 to 8-week-old were obtained from the Center for Development of Experimental Models (CEDEME), Federal University of Sao Paulo (UNIFESP). For the in vivo metastatic model, C57BL/6 mice received one intravenous (i.v.) injection of 2×10^5 viable B16-F10-Next melanoma cells in 100 μL. […] The control group received 100 μL PBS. Twenty-two days later, mice (minimum n=3 per group) had their lungs harvested, and the number of macroscopic melanotic nodules were counted. The Ethical Committee of Federal University of São Paulo, Project no. 1234, 2011, approved all experiments with animals, according to International guidelines. For the subcutaneous model, mice were injected with 5×10^5 tumor cells suspended in 100 μL of PBS in the right flank via the subcutaneous route. The peptide (300 μg) was solubilized in 10 μL of distilled H2O and 90 μL of PBS and injected per mouse via the intraperitoneal route. The administration of the peptide was performed in 5 alternate days initiating one day after tumor challenge. Tumor longitudinal diameter (D) and transverse diameter (d) were measured every 2 days until the tumor volume reached 3,000 mm3. Animals were sacrificed when the allowed volume was reached. Volume was calculated using the formula v=Dd^2×0.52. […]

[2] = tested on: CD11c+, MHC II+ bone marrow DCs; assay: Marker expression of bone marrow DCs with or without Poly I:C (flow cytometry); assay type: cell-based, C57Bl6 mice; conditions: 60 h
Method: DCs were obtained from the bone marrow of 6 to 8-week-old C57Bl6 mice. Briefly, femora and tibiae from mice were removed and stripped of muscles and tendons; both bone ends were cut and bone marrow was flushed out with RPMI 1640 medium using a 21-gauge needle and syringe. Cell clusters were dissociated by passing through a cell strainer and 0.45 M ammonium chloride was added for red cell lysis. After washing the cell suspension twice in RPMI 1640, 10×10^6 bone marrow cells per well were cultured in non-treated tissue-culture 6-well plates with 4 ml of complete medium (RPMI 1640 supplemented with 2 mM glutamine, 10,000 U/mL penicillin, 10 mg/mL streptomycin, 50 μM 2-mercaptoethanol, 10% heat-inactivated fetal calf serum with GM-CSF (50 ng/ml). Half of the medium was removed on day 2 and new medium supplemented with GM-CSF (100 ng/ml) and warmed at 37° C. was added. The culture medium was entirely discarded on day 3 and replaced by fresh warmed medium with GM-CSF (50 ng/ml). On day 6, non-adherent cells in the culture supernatant and loosely adherent cells harvested by gentle washing with PBS were pooled and used as the starting cell source for the experiments.
For murine cell analysis, these were stained in ice-cold PBS containing BSA (0.5%) and EDTA (2 mM) using appropriate antibody-fluorophore conjugates. Multiparameter analysis was performed on a BD FACSCanto II analyzer (BD Biosciences) and analyzed with FlowJo software (Tree Star). The following antibodies were used: anti-MHC Class II, anti-CD11c, anti-CD8a, anti-CD3e, anti-CD4, anti-CD86, anti-CD40, anti-CD80, Prior to acquisition, cells were resuspended in PBS/BSA 0.5%/EDTA (2 mM).
DCs were centrifuged and washed once with MACS buffer. Cells (10^6) were resuspended in 45 μl of buffer and 5 μl of antibodies/fluorophore, CD11c APC, MHC II PE, CD80 FITC, CD86 VioBlue and CD40 PE. The samples were acquired in BD FACS Canto II using the FacsDiva software. The data were analyzed by using the FlowJo software.

[3] = tested on: human mo-DC co-cultured with allogeneic lymphocytes; assay: Allogeneic lymphocyte proliferation induced by mo-DC of healthy donors (CFSE); assay type: cell-based; conditions: TNF, tumor lysate and peptide; mo-DC:lymphocyte 1:30
Method: Mo-DC were co-cultured with allogeneic lymphocytes (DC:Ly=1:30) to evaluate their ability to induce lymphocyte proliferation. This was measured by carboxyfluorescein succinimidyl ester (CFSE—Molecular Probes) dilution and activation measured by correlation among CD4/CD25 and Foxp3 expression (Clavijo-Salomon et al., 2016).
After two days in co-culture, the dilution of CFSE in lymphocytes was evaluated as a measurement of lymphocyte proliferation.

[4] = tested on: T lymphocytes of lungs, spleen and lymph nodes; assay: Flow cytometry of Treg, T-CD4+ and T-CD8+ cells after prophylactic DC protocol; assay type: in vivo, mice
Method: On day 14, mice were inoculated i.v. with B16F10.Nex2 melanoma tumor cells and on day 29, lungs, spleen and cervical and axillary lymph nodes were examined for CD3+ cells, and the proportion of T-CD4+ and T-CD8+ cells.
The lungs were incubated with 2 mg/ml of collagenase for 40 min at 37° C. before maceration. The cell suspension was incubated with cold hemolytic buffer for 1 min and then centrifuged. The pellet was suspended with RPMI medium and counted. 1×10^6 Cells of each group were processed and stained using the Treg Detection Kit (Miltenyi Biotec, Cambridge, USA). Lymphocytes were characterized using anti-CD4 (FITC), anti-CD25 (PE) and anti-Foxp3 (APC). Samples were analyzed by flow cytometry using FACSCantoII (Becton Dickinson, San Jose, Calif., USA). Acquired data were analyzed using the FlowJo V10 (TreeStar Inc., Ashland, Oreg., USA). The percentages of Foxp3^+ in CD4^+CD25^+ lymphocytes are indicated.
The cell suspension was incubated with cold hemolytic buffer for 1 min and then centrifuged. The pellet was suspended with RPMI medium and counted. 1×10^6 Cells of each group were stained with anti-CD3 (PE) and anti-CD4 (FITC) or anti-CD3 (PE) and anti-CD8 (FITC). All antibodies used were purchase from Miltenyi Biotec, Cambridge, USA. Samples were analyzed by flow cytometry using FACSCantoII (Becton Dickinson, San Jose, Calif., USA). Acquired data were analyzed using the FlowJo V10 (TreeStar Inc., Ashland, Oreg., USA). The percentages of CD4^+ or CD8^+ in CD3^+ lymphocytes are indicated.

[5] = tested on: colorectal CT26 carcinoma cells; assay: Subcutaneous syngeneic colorectal carcinoma model; assay type: in vivo, Balb/c mice; conditions: CT26 of moderate virulence (ATCC, CRL-2638); 300 μg i.p., 5 consecutive days
[6] = 100 μg/ml peptide + 12.5 μg/ml Poly I:C
[7] = prophylactic protocol with peptide-stimulated DCs

[CARGETARATFAYWGQGC], NH2 (C-C) [Rb9]
deaths up to the 40th day [1]: no deaths were recorded | s.c. tumor growth [1]: significantly delayed | CD40 expression over Poly I:C [2, 6]: stimulated CD40 over Poly I:C much like Rb9 | CD86 expression over Poly I:C [2, 6]: stimulated CD86 over Poly I:C | expression of CD80 ([2]; 100 μg/ml peptide, with or without Poly I:C): similar | lympho-stimulatory ability of mo-DC [3]: further enhance the lympho-stimulatory ability | T-CD4+ and T-CD8+ effector cells [4, 7]: increased T-CD4+ and T-CD8+ effector cells | Tregs (FoxP3+) [4, 7]: reduced Tregs | proportion of T-CD8+ to T-CD4+ cells ([4]; spleen and lymph nodes (except lungs), day 29, DCs stimulated by peptide): T-CD8+ cells greatly predominated over T-CD4+ effector cells | subcutaneous tumor growth [5]: significantly delayed
